From patent publication US10117873B2, “6-amino-purin-8-one compounds” (GlaxoSmithKline LLC, priority 2008, dated 2018) come the findings set out here.

What all share (assay type): cell-based
One test deals with Interferon-α. Description: Induction of Interferon-α using cryopreserved human PBMCs. Particulars: PBMC, 24 h incubation, normalized to 1 uM resiquimod, read-out: mean pEC50 for induction of Interferon-α (converted). As for the experimental part: Assay for the Induction of Interferon-α Using Cryopreserved Human Peripheral Blood Mononuclear Cells (PBMCs)
Compounds were dissolved in DMSO. Serial 2-fold dilutions with DMSO were prepared and 0.25 μl dispensed into 384-well clear Greiner polypropylene plates.
Blood samples of up to 200 ml were obtained from healthy human donors. Whole blood in 25 ml volumes was overlaid onto 15 ml Ficoll® gradients in Leucosep® tubes, and centrifuged at 1000 g for 20 min. Cells in the band at the plasma/Histopaque® interface were carefully removed and washed twice with PBS (centrifuged at 400 g for 5 min to harvest). The final pellet was resuspended in freezing medium (90% Heat-inactivated serum, 10% DMSO) to a cell concentration of 4×10^7 cells/ml. The resuspended cells were then cryopreserved (frozen) using a rate controlled freezer, and stored at −140° C. for up to 4 months.
Immediately prior to assay, vials of cryopreserved (frozen) PBMCs were thawed rapidly in a water bath at 37° C. A 1:10 dilution of the cells in trypan blue was prepared and counted. The PBMCs were then diluted in growth media [RPMI 1640 containing 10% fetal calf serum (invitrogen), Penicillin+[…] (Gibco cat. #25030-024, 1:50), L-Glutamine 2 mM, and 1000 units/ml recombinant human IFN-gamma (Preprotech catalogue #300-02)] to a density of 1×10^6 cells/ml, and 50 ul/well dispensed to 384-well clear Greiner polypropylene plates containing 0.25 μl DMSO or test compound in 0.25 μl DMSO. […] Plates were incubated for 24 h at 37° C. in 5% CO2.
A multi-isoform immunoassay was used to quantify IFN-α in PBMC supernatants. Rabbit polyclonal antibody against human IFN-α (catalogue number 31101, Stratech Scientific) was diluted 1:10000 in assay buffer (RPMI 1640 containing 10% fetal calf serum, Invitrogen) and 20 μl was added to each well of an MSD® (Meso-Scale® Discovery) single small-spot 384-well GAR (goat anti-rabbit antibody coated) plate.
The plate was incubated for 1 h at room temperature with vigorous shaking. Following three washes with PBS, 20 μl of cell supernatant were added to each well of the plate. The plate was then incubated for 1 h at room temperature with vigorous shaking. A pair of monoclonal antibodies to IFN-α (catalogue numbers 21100 and 21112, Stratech Scientific) were labelled with sulfo-TAG (MSD®), diluted 1:1000 in assay buffer and 20 μl added to each well of the plate. The plate was further incubated for 1 h at room temperature with vigorous shaking. Following three washes with PBS, 30 μl of ×2 T buffer (MSD®) was added to each well and the plate was read on an MSD® Sector 6000 plate reader.
Data were normalized to internal plate controls of 1 uM resiquimod (n=16) and DMSO (n=16). pEC50 values were derived by 4-parameter curve fit with IRLS in ActivityBase, from 11-point, two-fold serial dilution of test compounds.

Another test relates to IFN-α. Description: Induction of Interferon-α using fresh human PBMCs. The conditions noted are these: PBMC, 24 hr incubation, relative to 2 μM resiquimod control, read-out: mean pEC50 for induction of IFN-α (converted). The protocol: (§1) Assay for the Induction of Interferon-α and TNF-α Using Fresh Human Peripheral Blood Mononuclear Cells (PBMCs)
(§2) Compounds were dissolved and serially diluted in DMSO to give 100× the required concentration range using a Biomek® 2000. 1 ul of test compound was transferred into 96-well tissue culture plates using a Biomek® FX. Each compound was assayed in duplicate for each donor. Each plate contained a dilution series of the TLR7/8 agonist resiquimod as standard and Column 11 contained 1 μl of 200 μM resiquimod (giving a 2 μM final concentration, used to define the approximate maximal response to resiquimod).
(§3) Blood samples from two human donors were collected into sodium heparin (10 U/ml). 25 ml volumes of whole blood were overlaid onto 15 mls Histopaque® in LEUCOSEP™ tubes which were centrifuged at 800 g for 20 min and the band at the plasma/histopaque interface carefully removed. The collected cells were centrifuged at 2500 rpm for 10 min and the pellet resuspended in 10 ml of media (RPMI 1640 (Low endotoxin) supplemented with 10% v/v foetal calf serum (FCS, low endotoxin) 100 U/ml penicillin G, 100 μg/ml streptomycin, 10 mM L-glutamine and 1× non-essential amino acids). A 1:20 dilution of the cells was prepared using trypan blue & the cells counted using a haemocytometer. The PBMCs were diluted to give a final concentration of 2×10^6/ml and 100 ul of this cells suspension was added to wells containing 1 μl of diluted test compound.
(§4) The cell preparations were incubated for 24 hr (37° C., 95% air, 5% CO2) after which a sample of the supernatant was removed using the Biomek® FX and assayed for both IFN-α and TNF-α using the MSD® (Mesoscale Discovery) electrochemiluminescence assay platform. The IFN-α assay was carried out similarly to that described above. The TNF-α assay was carried out as per kit instructions (Cat No K111BHB).
(§5) Cytokine released was expressed as a percentage of the 2 μM resiquimod control (column 11). This percentage was plotted against compound concentration and the pEC50 for the response determined by non-linear least squares curve fitting. For the IFN-α responses generally a 4 parameter logistic model was selected. For the TNF responses where a clear maximum response was obtained (i.e. a well defined plateau in the response was observed) then a 4 parameter model was generally used. If the upper asymptote of the curve wasn't well defined then the curve fitting was generally constrained to a maximal response of 100% (i.e. to the response to 2 μM resiquimod) or to the response of the highest concentration tested if this was greater than the resiquimod response. Some curves were bell shaped for one or both cytokines and the cytokine data on the down slope of the bell shaped response (i.e. concentrations above those giving the maximal response) were generally excluded from the fit, usually with the exception of the concentration immediately above the peak response. Curve fitting thus concentrated on the up slope of the dose response curve.

For another test, the system named is TNF-α. Description: Induction of TNF-α using fresh human PBMCs. Particulars: PBMC, 24 hr incubation, relative to 2 μM resiquimod control, read-out: mean pEC50 for induction of TNF-α (converted). The protocol:
as §1, §2, §3, §4, §5

In the case of `CCCCOc1nc(N)c2[nH]c(=O)n(CCCN3CCC3)c2n1` [Example 1, 6-Amino-9-[3-(1-azetidinyl)propyl]-2-(butyloxy)-7,9-dihydro-8H-purin-8-one], the EC50 in the test on Interferon-α was under 3.16 µM.

For the compound `CCCCOc1nc(N)c2[nH]c(=O)n(CCCN3CCCC3)c2n1` [Example 2, 6-Amino-2-(butyloxy)-9-[3-(1-pyrrolidinyl)propyl]-7,9-dihydro-8H-purin-8-one], the EC50 with Interferon-α was under 3.16 µM.

In the case of `CCCCOc1nc(N)c2[nH]c(=O)n(CCCN3CCCCCC3)c2n1` [Example 3, 6-Amino-2-(butyloxy)-9-[3-(hexahydro-1H-azepin-1-yl)propyl]-7,9-dihydro-8H-purin-8-one], the EC50 in the test on Interferon-α is under 3.16 µM.

For the compound `CCCCOc1nc(N)c2[nH]c(=O)n(CCCCN3CCC3)c2n1` [Example 4, 6-Amino-9-[4-(1-azetidinyl)butyl]-2-(butyloxy)-7,9-dihydro-8H-purin-8-one], in the test on Interferon-α, the EC50 is under 3.16 µM.

Consider `CCCCOc1nc(N)c2[nH]c(=O)n(CCCCN3CCCC3)c2n1` [Example 5, 6-Amino-2-(butyloxy)-9-[4-(1-pyrrolidinyl)butyl]-7,9-dihydro-8H-purin-8-one], for which the EC50 is under 3.16 µM with Interferon-α, under 0.0316 µM in the test with IFN-α and over 3.16 µM in the test on TNF-α.

For the compound `CCCCOc1nc(N)c2[nH]c(=O)n(CCCCN3CCCCC3)c2n1` [Example 6, 6-Amino-2-(butyloxy)-9-[4-(1-piperidinyl)butyl]-7,9-dihydro-8H-purin-8-one], the results for the EC50 with Interferon-α, in the test on IFN-α and with TNF-α were under 3.16 µM, at most 0.01 µM and over 1 µM, respectively.

On to `CCCCOc1nc(N)c2[nH]c(=O)n(CCCCN3CCCCCC3)c2n1` [Example 7, 6-Amino-2-(butyloxy)-9-[4-(hexahydro-1H-azepin-1-yl)butyl]-7,9-dihydro-8H-purin-8-one], for which the results for the EC50 in the test on Interferon-α, in the test with IFN-α and in the test on TNF-α were under 3.16 µM, at most 0.01 µM and over 1 µM, respectively.

Regarding `CCCCOc1nc(N)c2[nH]c(=O)n(CCCCCN3CCC3)c2n1` [Example 8, 6-Amino-9-[5-(1-azetidinyl)pentyl]-2-(butyloxy)-7,9-dihydro-8H-purin-8-one], the EC50 in the test with Interferon-α was under 3.16 µM.

Consider `CCCCOc1nc(N)c2[nH]c(=O)n(CCCCCN3CCCC3)c2n1` [Example 9, 6-Amino-2-(butyloxy)-9-[5-(1-pyrrolidinyl)pentyl]-7,9-dihydro-8H-purin-8-one], for which the EC50 with Interferon-α is under 3.16 µM; in the test on IFN-α it was under 0.0316 µM; in the test on TNF-α, over 3.16 µM.

Take `CCCCNc1nc(N)c2[nH]c(=O)n(CCCN3CCCCC3)c2n1` [Example 16, 6-Amino-2-(butylamino)-9-[3-(1-piperidinyl)propyl]-7,9-dihydro-8H-purin-8-one]: in the test on Interferon-α, the EC50 is under 3.16 µM.

As for `CCCCNc1nc(N)c2[nH]c(=O)n(CCCCN3CCCCC3)c2n1` [Example 17, 6-Amino-2-(butylamino)-9-[4-(1-piperidinyl)butyl]-7,9-dihydro-8H-purin-8-one], the EC50 in the test on Interferon-α was under 3.16 µM.

As for `CCCCNc1nc(N)c2[nH]c(=O)n(CCCCCN3CCCCCC3)c2n1` [Example 19, 6-Amino-2-(butylamino)-9-[5-(hexahydro-1H-azepin-1-yl)pentyl]-7,9-dihydro-8H-purin-8-one], the EC50 with Interferon-α was under 3.16 µM.

In the case of `CC[C@H](C)Oc1nc(N)c2[nH]c(=O)n(CCCCN3CCCCC3)c2n1` [Example 24, 6-Amino-2-{[(1S)-1-methylpropyl]oxy}-9-[4-(1-piperidinyl)butyl]-7,9-dihydro-8H-purin-8-one], the EC50 in the test on Interferon-α is under 3.16 µM.

Regarding `CCCC[C@H](C)Oc1nc(N)c2[nH]c(=O)n(CCCCN3CCCCC3)c2n1` [Example 25, 6-Amino-2-{[(1S)-1-methylpentyl]oxy}-9-[4-(1-piperidinyl)butyl]-7,9-dihydro-8H-purin-8-one], in the test on Interferon-α, the EC50 was under 3.16 µM.

With `CC(C)Oc1nc(N)c2[nH]c(=O)n(CCCCCN3CCCCC3)c2n1` [Example 26, 6-Amino-2-[(1-methylethyl)oxy]-9-[5-(1-piperidinyl)pentyl]-7,9-dihydro-8H-purin-8-one], the EC50 in the test on Interferon-α is under 3.16 µM.

With `Nc1nc(OC2CCC2)nc2c1[nH]c(=O)n2CCCCN1CCCCC1` [Example 27, 6-Amino-2-(cyclobutyloxy)-9-[4-(1-piperidinyl)butyl]-7,9-dihydro-8H-purin-8-one], the EC50 with Interferon-α was under 3.16 µM.

For the compound `Nc1nc(OC2CCCC2)nc2c1[nH]c(=O)n2CCCCN1CCCCC1` [Example 28, 6-Amino-2-(cyclopentyloxy)-9-[4-(1-piperidinyl)butyl]-7,9-dihydro-8H-purin-8-one], the EC50 in the test with Interferon-α is under 3.16 µM.

As for `Nc1nc(OC2CCCCC2)nc2c1[nH]c(=O)n2CCCCN1CCCCC1` [Example 29, 6-Amino-2-(cyclohexyloxy)-9-[4-(1-piperidinyl)butyl]-7,9-dihydro-8H-purin-8-one], in the test with Interferon-α, the EC50 was under 3.16 µM.

Regarding `CCC[C@@H](C)Nc1nc(N)c2[nH]c(=O)n(CCCCN3CCCCC3)c2n1` [Example 30, 6-Amino-2-{[(1R)-1-methylbutyl]amino}-9-[4-(1-piperidinyl)butyl]-7,9-dihydro-8H-purin-8-one], in the test with Interferon-α, the EC50 is under 3.16 µM.

Take `CCC[C@H](C)Nc1nc(N)c2[nH]c(=O)n(CCCCN3CCCCC3)c2n1` [Example 31, 6-Amino-2-{[(1S)-1-methylbutyl]amino}-9-[4-(1-piperidinyl)butyl]-7,9-dihydro-8H-purin-8-one]: the EC50 in the test with Interferon-α was under 3.16 µM.

As to `CCC[C@H](C)Oc1nc(N)c2[nH]c(=O)n(CCCN3CCCCC3)c2n1` [Example 32, 6-Amino-2-{[(1S)-1-methylbutyl]oxy}-9-[3-(1-piperidinyl)propyl]-7,9-dihydro-8H-purin-8-one], in the test with Interferon-α, the EC50 is under 3.16 µM.

In the case of `CC[C@H](C)Oc1nc(N)c2[nH]c(=O)n(CCCCCN3CCCCC3)c2n1` [Example 33, 6-Amino-2-{[(1S)-1-methylpropyl]oxy}-9-[5-(1-piperidinyl)pentyl]-7,9-dihydro-8H-purin-8-one], the EC50 in the test on Interferon-α is under 3.16 µM.

Take `CCCCOc1nc(N)c2[nH]c(=O)n(CCCN3CCCCC3)c2n1` [Example 34, 6-Amino-2-(butyloxy)-9-[3-(1-piperidinyl)propyl]-7,9-dihydro-8H-purin-8-one]: the EC50 in the test with Interferon-α was under 3.16 µM.
